A word on the Ki: it is the dissociation constant of the complex between target and ligand, obtained from inhibition or displacement.

Counter-ions that a name gives are not always drawn.

recombinant human enteropeptidase, sequence (P98073 whole entry): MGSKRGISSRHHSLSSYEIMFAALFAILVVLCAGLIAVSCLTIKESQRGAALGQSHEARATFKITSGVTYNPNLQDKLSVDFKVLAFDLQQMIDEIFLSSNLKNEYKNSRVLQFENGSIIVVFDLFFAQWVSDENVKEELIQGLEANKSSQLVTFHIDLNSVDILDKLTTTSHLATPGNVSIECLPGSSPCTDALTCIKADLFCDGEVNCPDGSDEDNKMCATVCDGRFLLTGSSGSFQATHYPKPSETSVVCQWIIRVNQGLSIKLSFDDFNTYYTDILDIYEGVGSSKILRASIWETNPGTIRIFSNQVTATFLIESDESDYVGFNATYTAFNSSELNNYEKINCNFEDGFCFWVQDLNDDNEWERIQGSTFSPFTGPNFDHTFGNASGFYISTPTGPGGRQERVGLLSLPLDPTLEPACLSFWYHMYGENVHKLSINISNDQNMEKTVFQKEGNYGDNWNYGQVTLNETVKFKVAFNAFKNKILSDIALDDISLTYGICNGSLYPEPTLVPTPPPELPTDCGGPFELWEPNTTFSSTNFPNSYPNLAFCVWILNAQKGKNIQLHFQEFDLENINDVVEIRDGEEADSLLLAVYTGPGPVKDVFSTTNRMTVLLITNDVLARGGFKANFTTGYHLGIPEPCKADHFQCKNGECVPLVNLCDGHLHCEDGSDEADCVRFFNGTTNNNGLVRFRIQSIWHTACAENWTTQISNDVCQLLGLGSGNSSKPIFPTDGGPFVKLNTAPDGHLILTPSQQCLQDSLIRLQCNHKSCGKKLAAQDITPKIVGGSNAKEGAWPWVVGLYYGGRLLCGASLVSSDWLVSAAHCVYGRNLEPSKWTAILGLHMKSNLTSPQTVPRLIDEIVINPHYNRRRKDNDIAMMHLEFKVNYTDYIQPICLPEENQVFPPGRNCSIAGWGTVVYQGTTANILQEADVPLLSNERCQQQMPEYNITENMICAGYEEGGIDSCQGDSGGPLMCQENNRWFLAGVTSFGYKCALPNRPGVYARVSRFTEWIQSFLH

This test concerns the target recombinant human enteropeptidase (Homo sapiens (Human), UniProt P98073). Description: Measurement of enteropeptidase inhibitory activity. Type of test: biochemical. Conditions: Dixon plot. The procedure:
Measurement of Enteropeptidase Inhibitory Activity
Using a 96 well plate (#3915, Costar), a test compound (25 μL), 400 mM Tris-HCl buffer (pH 8.0, 25 μL) and 0.5 mg/mL fluorescence enzyme substrate (Gly-Asp-Asp-Asp-Asp-Lys-β-Naphtylamide, 25 μL) were mixed, and recombinant human enteropeptidase (R&D Systems, Inc., 25 μL) was added. Using a fluorescence plate reader fmax (Molecular Devices, Inc.), the reaction rate was measured from the time-course changes at excitation wavelength 320 nm and fluorescence wavelength 405 nm. The Ki value was calculated from the concentration of the test compound, reciprocal of reaction rate, and Km value of the enzyme substrate, and by using Dixon plot.
For `C/C(=C\c1ccc(C(=O)Oc2ccc(C(=N)N)cc2)s1)C(=O)NCC(=O)O` [Compound B-2], the inhibition constant Ki amounted to 9290 pM.

Consider `C/C(=C\c1ccc(C(=O)Oc2ccc(C(=N)N)cc2)s1)C(=O)N[C@@H](CO)C(=O)O` [Compound B-3], for which the Ki was determined as 5720 pM.

With `CC(Cc1ccc(C(=O)Oc2ccc(C(=N)N)cc2)s1)C(=O)O` (stereo not drawn) [Compound B-6, 3-[5-(4-amidinophenoxycarbonyl)-thiophen-2-yl]-2-methylpropanoic acid trifluoroacetic acid salt], the Ki was determined as 1440 pM.

For the molecule `C/C(=C\c1ccc(C(=O)Oc2ccc(C(=N)N)cc2)s1)C(=O)N(CCCO)CCS(=O)(=O)O` [Compound B-7, N-{(2E)-3-[5-(4-amidinophenoxycarbonyl)thiophen-2-yl]-2-methylpropenoyl}-N-hydroxypropyltaurine trifluoroacetic acid salt], the inhibition constant (Ki) came out at 2150 pM.

Consider `C/C(=C\c1ccc(C(=O)Oc2ccc(C(=N)N)cc2[N+](=O)[O-])s1)C(=O)O` [Compound B-8], for which the inhibitory constant (Ki) came to 840 pM.

As for `CC(Cc1ccc(C(=O)Oc2ccc(C(=N)N)cc2[N+](=O)[O-])s1)C(=O)N(CCCO)CC(=O)O` (stereo not drawn) [Compound B-11, N-{3-[5-(4-amidino-2-nitrophenoxycarbonyl)thiophen-2-yl]-2-methylpropanoyl}-N-(3-hydroxypropyl)glycine hydrochloride], the inhibitory constant (Ki) is 1410 pM.

As for `CC(Cc1ccc(C(=O)Oc2ccc(C(=N)N)cc2)s1)C(=O)NCC(=O)O` (stereo not drawn) [Compound B-12], the Ki was 2210 pM.

Consider `CC(Cc1ccc(C(=O)Oc2ccc(C(=N)N)cc2Br)s1)C(=O)O` (stereo not drawn) [Compound B-16, 3-[5-(4-amidino-2-bromophenoxycarbonyl)thiophen-2-yl]-2-methylpropionic acid trifluoroacetic acid salt], for which the Ki was found to be 290 pM.

Regarding `CC(Cc1ccc(C(=O)Oc2ccc(C(=N)N)cc2Cl)s1)C(=O)O` (stereo not drawn) [Compound B-17], the inhibition constant (Ki) was 420 pM.

Turning to `CC(Cc1ccc(C(=O)Oc2ccc(C(=N)N)cc2F)s1)C(=O)O` (stereo not drawn) [Compound B-19], the inhibitory constant (Ki) turned out to be 420 pM.

`CC(Cc1ccc(C(=O)Oc2ccc(C(=N)N)cc2F)s1)C(=O)N[C@@H](CC(=O)O)C(=O)O` (stereo partly drawn) [Compound B-20]: the inhibition constant Ki turned out to be 280 pM.

`CC(Cc1ccc(C(=O)Oc2ccc(C(=N)N)cc2F)s1)C(=O)N[C@@H](CCC(=O)O)C(=O)O` (stereo partly drawn) [Compound B-21]: the inhibition constant (Ki) was found to be 560 pM.

On to `CC(Cc1ccc(C(=O)Oc2ccc(C(=N)N)cc2F)s1)C(=O)N[C@H](CC(=O)O)C(=O)O` (stereo partly drawn) [Compound B-22], for which the Ki was 500 pM.

Consider `CC(Cc1ccc(C(=O)Oc2ccc(C(=N)N)c(F)c2)s1)C(=O)O` (stereo not drawn) [Compound B-24], for which the inhibition constant (Ki) was 490 pM.

On to `C[C@H](Cc1ccc(C(=O)Oc2ccc(C(=N)N)cc2F)s1)C(=O)N[C@@H](CC(=O)O)C(=O)O` [Compound B-25, N-{3-[5-(4-amidino-2-fluorophenoxycarbonyl)thiophen-2-yl]-2R-methylpropionyl}-L-aspartic acid trifluoroacetic acid salt], for which the inhibition constant (Ki) turned out to be 790 pM.

For the molecule `CC(C)C[C@H](Cc1ccc(C(=O)Oc2ccc(C(=N)N)cc2F)s1)C(=O)N[C@@H](CC(=O)O)C(=O)O` [Compound B-26, N-{3-[5-(4-amidino-2-fluorophenoxycarbonyl)thiophen-2-yl]-2R-isobutylpropionyl}-L-aspartic acid trifluoroacetic acid salt], the inhibition constant Ki came to 2200 pM.

In the case of `CC(C)C[C@@H](Cc1ccc(C(=O)Oc2ccc(C(=N)N)cc2F)s1)C(=O)N[C@@H](CC(=O)O)C(=O)O` [Compound B-27], the inhibition constant (Ki) was 950 pM.

Take `CCC[C@H](Cc1ccc(C(=O)Oc2ccc(C(=N)N)cc2F)s1)C(=O)N[C@@H](CC(=O)O)C(=O)O` [Compound B-28]: the Ki amounted to 1100 pM.

Take `CCC[C@@H](Cc1ccc(C(=O)Oc2ccc(C(=N)N)cc2F)s1)C(=O)N[C@@H](CC(=O)O)C(=O)O` [Compound B-29]: the Ki was determined as 580 pM.

Turning to `CC(Cc1ccc(C(=O)Oc2ccc(C(=N)N)c(F)c2)s1)C(=O)N[C@@H](CC(=O)O)C(=O)O` (stereo partly drawn) [Compound B-30], the Ki amounted to 520 pM.

In the case of `N=C(N)c1ccc(OC(=O)c2ccc(CCC(=O)N[C@@H](CC(=O)O)C(=O)O)s2)c(F)c1` [Compound B-32, N-{3-[5-(4-amidino-2-fluorophenoxycarbonyl)thiophen-2-yl]propanoyl}-L-aspartic acid trifluoroacetic acid salt], the Ki was found to be 310 pM.

On to `CCCC(Cc1ccc(C(=O)Oc2ccc(C(=N)N)cc2)s1)C(=O)N[C@@H](CC(=O)O)C(=O)O` (stereo partly drawn) [Compound B-33], for which the Ki came to 2800 pM.

Consider `CC(Cc1ccc(C(=O)Oc2ccc(C(=N)N)cc2F)s1)C(=O)N1CCCC(C(=O)O)C1` (stereo not drawn) [Compound B-34], for which the Ki came out at 2200 pM.

`CC(Cc1ccc(C(=O)Oc2ccc(C(=N)N)cc2F)s1)C(=O)N[C@@H](CO)C(=O)O` (stereo partly drawn) [Compound B-35]: the inhibition constant Ki was 400 pM.

For `N=C(N)c1ccc(OC(=O)c2ccc(CCC(=O)N[C@H](CC(=O)O)C(=O)O)s2)c(F)c1` [Compound B-36], the Ki came out at 510 pM.

In the case of `N=C(N)c1ccc(OC(=O)c2ccc(CCC(=O)N(CCC(=O)O)CC(=O)O)s2)c(F)c1` [Compound B-37], the Ki stood at 500 pM.

For the molecule `C=CCN(CC(=O)O)C(=O)CCc1ccc(C(=O)Oc2ccc(C(=N)N)cc2F)s1` [Compound B-38, N-{3-[5-(4-amidino-2-fluorophenoxycarbonyl)thiophen-2-yl]propionyl}-N-allylglycine trifluoroacetic acid salt], the Ki is 750 pM.

Consider `CC(Cc1ccc(C(=O)Oc2ccc(C(=N)N)cc2)s1)C(=O)N[C@@H](CS(=O)(=O)O)C(=O)O` (stereo partly drawn) [Compound B-39, N-{3-[5-(4-amidinophenoxycarbonyl)-thiophen-2-yl]-2-methylpropanoyl}-L-cysteic acid trifluoroacetic acid salt], for which the Ki was determined as 950 pM.

As for `CC(Cc1ccc(C(=O)Oc2ccc(C(=N)N)cc2)s1)C(=O)NCP(=O)(O)O` (stereo not drawn) [Compound B-40, N-{3-[5-(4-amidinophenoxycarbonyl)-thiophen-2-yl]-2-methylpropanoyl}aminomethylphosphonic acid trifluoroacetic acid salt], the Ki amounted to 2000 pM.

For `CC(Cc1ccc(C(=O)Oc2ccc(C(=N)N)cc2F)s1)C(=O)N[C@@H](CS(=O)(=O)O)C(=O)O` (stereo partly drawn) [Compound B-41], the Ki is 270 pM.

For the molecule `CC(Cc1ccc(C(=O)Oc2ccc(C(=N)N)cc2F)s1)C(=O)NCP(=O)(O)O` (stereo not drawn) [Compound B-42], the Ki was 370 pM.

Take `CC(Cc1ccc(C(=O)Oc2ccc(C(=N)N)cc2Cl)s1)C(=O)NCP(=O)(O)O` (stereo not drawn) [Compound B-43]: the Ki amounted to 420 pM.

Take `CC(Cc1ccc(C(=O)Oc2ccc(C(=N)N)cc2Cl)s1)C(=O)N[C@@H](CS(=O)(=O)O)C(=O)O` (stereo partly drawn) [Compound B-44]: the inhibition constant Ki turned out to be 210 pM.

For `CC(CCC(=O)O)Cc1ccc(C(=O)Oc2ccc(C(=N)N)cc2)s1` (stereo not drawn) [Compound B-47], the inhibition constant (Ki) worked out at 2500 pM.

For `CC(CCC(=O)O)Cc1ccc(C(=O)Oc2ccc(C(=N)N)cc2F)s1` (stereo not drawn) [Compound B-48], the inhibition constant (Ki) was determined as 880 pM.

As to `CC(CCC(=O)N[C@@H](CC(=O)O)C(=O)O)Cc1ccc(C(=O)Oc2ccc(C(=N)N)cc2F)s1` (stereo partly drawn) [Compound B-49], the inhibitory constant (Ki) came to 410 pM.

For the molecule `CC(CCC(=O)N[C@@H](CC(=O)O)C(=O)O)Cc1ccc(C(=O)Oc2ccc(C(=N)N)cc2)s1` (stereo partly drawn) [Compound B-50], the Ki came to 890 pM.

In the case of `CC(Cc1cc(C(=O)Oc2ccc(C(=N)N)cc2F)cs1)C(=O)O` (stereo not drawn) [Compound B-51, 3-[4-(4-amidino-2-fluorophenoxycarbonyl)thiophen-2-yl]-2-methylpropanoic acid trifluoroacetic acid salt], the Ki was found to be 720 pM.

As to `CC(Cc1cc(C(=O)Oc2ccc(C(=N)N)cc2F)cs1)C(=O)N[C@@H](CC(=O)O)C(=O)O` (stereo partly drawn) [Compound B-52], the inhibition constant Ki was 390 pM.

For the molecule `CC(Cc1cc(C(=O)Oc2ccc(C(=N)N)cc2)cs1)C(=O)N[C@@H](CC(=O)O)C(=O)O` (stereo partly drawn) [Compound B-53], the inhibition constant (Ki) amounted to 4800 pM.

`N=C(N)c1ccc(OC(=O)c2csc(CCC(=O)N[C@@H](CC(=O)O)C(=O)O)c2)c(F)c1` [Compound B-54, N-{3-[4-(4-amidino-2-fluorophenoxycarbonyl)thiophen-2-yl]propanoyl}-L-aspartic acid trifluoroacetic acid salt]: the inhibition constant Ki is 580 pM.

As for `CC(Cc1csc(C(=O)Oc2ccc(C(=N)N)cc2)c1)C(=O)N[C@@H](CC(=O)O)C(=O)O` (stereo partly drawn) [Compound B-55], the Ki was found to be 980 pM.

Regarding `N=C(N)c1ccc(OC(=O)c2ccc(-c3ccc(C(=O)N[C@@H](CC(=O)O)C(=O)O)cc3)s2)cc1` [Compound B-56], the Ki turned out to be 9500 pM.

On to `N=C(N)c1ccc(OC(=O)c2ccc(-c3ccc(C(=O)N[C@@H](CC(=O)O)C(=O)O)cc3)s2)c(F)c1` [Compound B-57], for which the Ki worked out at 3000 pM.

As to `N=C(N)c1ccc(OC(=O)c2ccc(-c3cccc(C(=O)N[C@@H](CC(=O)O)C(=O)O)c3)s2)cc1` [Compound B-58], the Ki was 9800 pM.

Regarding `N=C(N)c1ccc(OC(=O)c2ccc(-c3ccc(C(=O)N[C@@H](CC(=O)O)C(=O)O)s3)s2)cc1` [Compound B-59, N-{5-[5-(4-amidinophenoxycarbonyl)-thiophen-2-yl]thiophen-2-ylcarbonyl}-L-aspartic acid trifluoroacetic acid salt], the Ki was found to be 8200 pM.

For `N=C(N)c1ccc(OC(=O)c2ccc(CC(=O)N[C@@H](CC(=O)O)C(=O)O)s2)c(F)c1` [Compound B-60, N-[5-(4-amidino-2-fluorophenoxycarbonyl)thiophen-2-ylacetyl]-L-aspartic acid trifluoroacetic acid salt], the Ki amounted to 640 pM.

Take `Cc1cc(C(=O)Oc2ccc(C(=N)N)cc2F)sc1CCC(=O)N[C@@H](CC(=O)O)C(=O)O` [Compound B-61, N-{3-[5-(4-amidino-2-fluorophenoxycarbonyl)-3-methylthiophen-2-yl]propanoyl}-L-aspartic acid trifluoroacetic acid salt]: the inhibitory constant (Ki) turned out to be 130 pM.
